Data on two compounds can be found in patent US10669238B2, “Irreversible bruton's tyrosine kinase inhibitor” (HEFEI INSTITUTES OF PHYSICAL SCIENCE, CHINESE ACADEMY OF …, priority 2016, dated 2020).

Bounds are passed on as bounds.

One assay has as its system leukemia cell OCI-AML-3. Briefly: Cell proliferation (Cell Titer-Glo), OCI-AML-3. Format: cell-based. The settings on record: Homo sapiens; OCI-AML-3, 72 hours; read-out: Effects on cell proliferation (GI50). As to the method:
(§1) The selectivity of Compound 1 in inhibiting the proliferation of cancer cells was further evaluated by testing the effect of Btk inhibitors on the growth of cancer cells. […]
(§2) In this example different concentrations (0.000508 μM, 0.00152 μM, 0.00457 μM, 0.0137 μM, 0.0411 μM, 0.123 μM, 0.370 μM, 1.11 μM, 3.33 μM, 10 μM) of Compound 1 and Compound 6 were respectively added into the above cells which were then cultured for 72 hours. The number of viable cells was determined via quantitative determination of ATP in living cells by using Cell Titer-Glo® (Promega, the USA) Chemical Luminescent Cell Viability Assay kit.
(In general: ATP-based viability assays read luminescence as a measure of living cells.)

Assay [1] has as its system diffuse large B-cell lymphoma cell lines Pfeiffer. In words: Cell proliferation (Cell Titer-Glo), Pfeiffer. Format: cell-based. The settings on record: Homo sapiens, 72 hours, read-out: Effects on cell proliferation (GI50). As to the method:
as §1, §2

Assay [2] has as its target T1, TEL-BLK-BaF3 cells (stably expressing TEL-BLK activated kinase) (Homo sapiens, UniProt P51451).
T1 construct: expressed in transfected cells; host or cells: mouse BaF3 cells, retroviral MSCV-Puro; the other entry of the earlier key: ETV6 (P41212, Transcription factor ETV6)
In words: Cell proliferation (Cell Titer-Glo), BaF3-tel-BLK. To be noted: BaF3-tel-BLK (mouse BaF3 cells), 72 hours; read-out: Effects on cell proliferation (GI50). It counts as cell-based. As to the method: as §1, §2

The subject of assay [3] is U2932 (B-cell lymphoma cells). Briefly: Cell cycle distribution by flow cytometry in U2932. Format: cell-based. The settings on record: U2932, 10 μM, 48 hours. As to the method:
(§3) Effect of Compound 1 on cell cycle distribution was examined respectively in Pfeiffer (human diffuse large cell lymphoma B lymphocytes, purchased from Cobioer Biosciences Co., LTD (Nanjing)) and U2932 (B-cell lymphoma cells, purchased from ATCC) cells in order to study the growth cycle to which the cells were blocked upon compound administration. The above cells were treated with various concentrations (0.5 μM, 1 μM, 5 μM, 10 μM) of Compound 1, 10 μM of PC132765 and 10 μM of Compound 6 (FIG. 4a) or 1 μM of Compound 6 (FIG. 4b) for 48 hours, and then cells were collected and washed twice with 1×PBS buffer, and fixed with 75% ethanol at −20° C. for 24 hours, washed again with 1×PBS buffer twice, followed by addition of 0.5 mL 1×PBS buffer and 0.5 mL of PI dyeing liquor (purchased from BD Bioscience, USA), and then the cells were placed in the dark at 37° C. for dyeing 15 minutes and the cell cycle distribution was detected by flow cytometry (BD FACS Calibur).
(§4) Experiments shown in FIGS. 4a-4b reflected that Compound 1 influenced the cell cycle of both two cell strains.
On the technique in general: Flow cytometry measures light scatter and fluorescence of single cells or particles in a stream.

In assay [4] the test system is U2932 (B-cell lymphoma cells). In words: Cell apoptosis (PARP and Caspase 3 cleavage) in U2932. Format: cell-based. As to the method:
(§5) Various concentrations (0.5 μM, 1 μM, 5 μM, 10 μM) of Compound 1 was administered to Pfeiffer (human diffuse large cell lymphoma B lymphocytes, purchased from Cobioer Biosciences Co., LTD (Nanjing)) and U2932 (B-cell lymphoma cells, purchased from ATCC) in order to confirm whether cell death after the administration was caused by apoptosis or necrosis. After 48 hours, effects of Compound 1 on protein cleavage of the DNA repairase poly(ADP-ribose) polymerase (PARP) and Caspase (cysteinyl aspartate-specific proteinase) 3 that were closely related to cell apoptosis was examined.

Assay [5] concerns Pfeiffer (human diffuse large cell lymphoma B lymphocytes). In words: Cell cycle distribution by flow cytometry in Pfeiffer. Format: cell-based. To be noted: 10 μM, 48 hours. As to the method: as §3, §4
The subject of assay [6] is phosphorylation of tyrosine Y223 on Btk. In words: Effects on BTK Y223 and downstream signaling pathway proteins in cells (anti-IgM stimulation). Format: cell-based, human. The settings on record: Compound 1 in MEC-2, Pfeiffer, Ramos, TMD8, U2932; Compound 35 in MEC-1; 4 hours, then anti-IgM 10 mins. The source says:
By assaying a number of cellular biochemical and functional endpoints, the properties of the compounds were further characterized. […] In this experiment, PC132765 (purchased from Shanghai Haoyuan Chemexpress Co., Ltd.), CGI11746 (purchased from Shanghai Haoyuan Chemexpress Co., Ltd.) and Compound 6 (prepared herein) were used as control (see FIGS. 2a-2f).
Effects of the compounds on phosphorylation of BTKY223, BTKY551, PLCγ1Y783, PLCγ2Y759, PLCγ2Y1217, P—NF-κB P65, P-AKT Ser473, Erk Thr202/Tyr204 and the like were determined (FIGS. 2a-2f).

Assay [7] deals with Pfeiffer (human diffuse large cell lymphoma B lymphocytes). In words: Cell apoptosis (PARP and Caspase 3 cleavage) in Pfeiffer. Format: cell-based. To be noted: 48 hours. As to the method:
as §5

T1 sequence (P51451 241-494 limits assumed): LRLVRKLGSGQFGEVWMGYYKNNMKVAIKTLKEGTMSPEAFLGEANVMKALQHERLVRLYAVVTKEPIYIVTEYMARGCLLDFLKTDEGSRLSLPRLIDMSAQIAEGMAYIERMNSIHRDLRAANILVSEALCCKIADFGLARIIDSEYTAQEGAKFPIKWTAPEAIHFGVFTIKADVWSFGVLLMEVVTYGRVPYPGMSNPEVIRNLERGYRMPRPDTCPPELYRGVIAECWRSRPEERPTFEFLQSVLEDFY

In the case of `CCC(=O)Nc1cc(Nc2cc(-c3cccc(NC(=O)c4ccc(C(C)(C)C)cc4)c3C)cn(C)c2=O)ccc1C(=O)N1CCOCC1` [Compound 6, N-(3-(5-((3-propanamide-4-(morpholin-4-carbonyl)phenyl)amino)-1-methyl-6-oxo-1,6-dihydropyridin-3-yl)-2-methylphenyl)-4-(tert-butyl)benzamide], the GI50 in the assay on leukemia cell OCI-AML-3 was 9.5 µM; in assay [1], greater than 10 µM; in assay [2] it was 5.4 µM.
For `C=CC(=O)Nc1cc(Nc2cc(-c3cccc(NC(=O)c4ccc(C(C)(C)C)cc4)c3C)cn(C)c2=O)ccc1C(=O)N1CCOCC1` [Compound 1, N-(3-(5-((3-acrylamide-4-(morpholin-4-carbonyl)phenyl)amino)-1-methyl-6-oxo-1,6-dihydropyridin-3-yl)-2-methylphenyl)-4-(tert-butyl)benzamide], the GI50 was found to be 3.8 µM in the assay with leukemia cell OCI-AML-3, 4.5 µM in assay [1] and 4.7 µM in assay [2]. Besides, the “effect on cell cycle” value in assay [3] and in assay [5] was “significant cell cycle arrest in G0-G1” each time. The “cleavage of DNA repairase poly(ADP-ribose) polymerase (PARP)” value in assay [4] (U2932, 10 μM, 48 hours) was “significant cleavage”; in assay [7] (10 μM), “significant cleavage”. The cell apoptosis result in assay [4] (U2932, 48 hours) is given as “could lead to cell apoptosis”; in assay [7] it was “could lead to cell apoptosis”. Moreover, in assay [6], the “phosphorylation of tyrosine Y223 on Btk” value is “selectively and significantly inhibit phosphorylation of tyrosine Y223 on Btk”.
